This note sets out measurements from paper PMC6271476, “Synthesis, Anticancer Activity and UPLC Analysis of the Stability of Some New Benzimidazole-4,7-dione Derivatives” (Molecules, 2013).

For data set [1], the system named is human lung adenocarcinoma A549 cells. Briefly: WST-1 cell viability assay, growth inhibition of A549 cells under normoxia and hypoxia. Particulars: for Differential cytotoxicity O/H (hypoxic/aerobic cytotoxicity coefficient): ratio IC50 normoxia / IC50 hypoxia, A549; for inhibition of the cell growth / decrease of cell viability compared to control cells: compound at 10 µM, 48 h. On the technique in general: Formazan colour is commonly taken as a measure of viable cells.
Procedure: (§1) The human lung adenocarcinoma A549 cell line, purchased from Health Protection Agency Culture Collections (ECACC, Salisbury, UK), was cultured in F12K medium (HyClone, Loughborough, UK) supplemented with 10% heat-inactivated foetal bovine serum (FBS), penicillin (10 U/mL) and streptomycin (10 µg/mL) in air with 5% CO2 at 37 °C. Hypoxic cells were obtained by culturing in a hypoxic incubator in 1% O2 and 5% CO2 at 37 °C for 24 h before treatment.
(§2) In order to determine the anticancer activity of the analysed compounds we evaluated the cell viability using THE WST-1 assay (Millipore, Billerica, MA, USA) according to the manufacturer’s instructions.
(§3) The absorbance was determined at 420 nm using a microplate reader (Synergy H1, Bio-Tek, Winooski, VT, USA) after 3 h of incubation at 37 °C.
(§4) In order to determine the anticancer activity of the analysed compounds we evaluated the cell viability using the WST-1 assay, which is based on the conversion of the tetrazolium salt WST-1 to formazan by cellular mitochondrial dehydrogenases. Therefore, the amount of formazan dye formed directly correlates with the number of live cells in the culture.
(§5) A549 cells were seeded in 96-well plates at a density of 5,000 cells/well and cultured under normoxic conditions. To investigate the effect of compounds on hypoxic cancer cells, A549 cells were exposed to hypoxia (1% O2) for 24 h before treatment. […] Normoxic and hypoxic cells were treated with different concentrations of the tested compounds or vehicle (0.2% DMSO) for control cells. The cell viability was assessed after a 48 h incubation under normoxic or hypoxic conditions with the compounds. Briefly, WST-1 reagent was added to the cells and the percentage (%) of cell viability related to control cells was calculated by the expression [A] test/[A] control × 100 where [A] test is the absorbance of the cells treated with compounds and [A] control is the absorbance of control cells.

The nature of data set [2]: Stability (degradation kinetics, recovery) in different solvent environments by RP-UPLC. The class given is physicochemical. Particulars: for half-life at 0.1 mg/mL: read-out: degradation t1/2 (converted).
Test in data set [3]: as above
Particulars: for half-life at 0.1 mg/mL: read-out: degradation t1/2 (converted). The class given is physicochemical. Here is the method:
Chromatographic purification was performed on silica gel plates (Merck F254, Darmstadt, Germany) with the indicated eluents. Chemicals and solvents were obtained from commercial sources. The UPLC system consisted of an Acquity Ultra Performance LC Waters H-class system (Waters, Corporation, Milford, MA, USA). Chromatographic separation was achieved on an Acquity UPLC HSS T3 column (1.8 µm × 2.1 × 50 mm). The chromatographic peaks were identified with the Waters PDA eλ Acquity UPLC Detector. Compound 5b was monitored at a wavelength of 261 nm and compound 6b at 289 nm. All chromatographic experiments were performed in an isocratic mode. The mobile phase consisted of a mixture of solvents of chromatographic purity, acetonitrile/buffer (30:70 v/v). Buffer was a 0.01 M mixture of ammonium formate and formic acid pH = 2.4. The flow rate was set to 0.5 mL/min and the oven temperature to 25 °C. Compound samples were weighed on analytical scales with an accuracy of 0.01 mg. All the samples were prepared in 5, 10 and 25 mL volumetric flasks. Solution volume injections of 1.5 µL were performed with the use of an autosampler. Each sample was analysed three times and the run time analysis was five minutes. All solutions were filtered through a 0.45 µm membrane filter. The final result was presented as an arithmetical mean. The control of the UPLC system and detection was achieved by the Empower 3 Waters® software. Solvents for UPLC analysis were of UPLC grade and obtained from J. T. Baker (Center Valley, PA, USA). The method was validated in terms of precision, accuracy, specificity, detectability, and stability for compounds 5b and 6b.
Stability: Each medium (1 mL, 0.2% DMSO, water, 0.9% NaCl, and HCl pH = 1.5) was added to 10 mL volumetric flasks containing products 5b and 6b (1 mg). The flasks were filled up with the mobile phase. Each solution was analysed at t0 and after 6, 24, 48, and 72 h. The obtained calibration curve was used for the determination of degradation kinetics of the compounds in the solvents. The degradation kinetic parameters: rate constant (k) and t1/2 (half-life) were calculated with the use of Equation (3), where c0 is the concentration at time zero, c is the remaining concentration, k is the rate constant (h^−1) and t is the time (h): […]
The source holds these as a separate data set.

In data set [4] the test system is human lung adenocarcinoma A549 cells.
Procedure: as §1, §2, §3, §4, §5
Where [5] appears, read: read-out: IC50 A549 Hypoxia (H), A549 cells, hypoxia (1% O2, 24 h before treatment and during culture), 48 h incubation, WST-1, mean ± SD, n = 3.
The mark [6] stands for this setting: Homo sapiens, A549, 48 h, read-out: IC50 A549 Normoxia (O), A549 cells, normoxia, 48 h incubation, WST-1, mean ± SD, n = 3.
The mark [7] stands for this setting: Homo sapiens, A549, read-out: IC50 A549 Hypoxia (H), A549 cells, hypoxia (1% O2, 24 h before treatment and during culture), 48 h incubation, WST-1, mean ± SD, n = 3.
Where [8] appears, read: read-out: IC50 A549 Normoxia (O), A549 cells, normoxia, 48 h incubation, WST-1, mean ± SD, n = 3.

Read-outs that look alike come from different tables or passages of the source. A value given as a limit tells only on which side of the number the result lay.

As for `O=C1C=CC(=O)c2[nH]c(-c3ccc4ccccc4c3)nc21` [Compound 5d, 2-Naphthyl-1H-benzimidazol-4,7-dione], in data set [1], the “Differential cytotoxicity O/H (hypoxic/aerobic cytotoxicity coefficient)” value is 2.06. The concentration for half-maximal inhibition (IC50) (in general, the midpoint of a concentration-inhibition curve) in data set [1] (setting [5]) is 232.4 ± 1.4 µM.
For the molecule `O=C1C=CC(=O)c2[nH]c(-c3ccccc3[N+](=O)[O-])nc21` [Compound 5b, 2-(2-Nitrophenyl)-1H-benzimidazol-4,7-dione], the half-life at 0.1 mg/mL in data set [2] (MeOH) is more than 72 h; in data set [3] (0.2% DMSO) it was 215 h; in data set [3] (0.9% NaCl), 155 h; in data set [3] (water, H2O), more than 72 h. In addition, the degradation result in data set [2] (methanol, up to 72 h) is listed as “did not suffer any degradation”; in data set [3] (water, up to 72 h) it was “did not suffer any degradation”. Moreover, the “degradation rate constant k” value amounted to 0.0002 h⁻¹ in data set [3] (0.2% DMSO) and 0.0004 h⁻¹ in data set [3] (0.9% NaCl). The IC50 was less than 100 µM in data set [1] (setting [6]), 47.4 ± 1.1 µM in data set [1] (setting [7]) and 100 ± 1.8 µM in data set [1] (setting [8]). Further, the “Differential cytotoxicity O/H (hypoxic/aerobic cytotoxicity coefficient)” value in data set [1] was 2.13.
On to `O=C1C=CC(=O)c2c1[nH]c(-c1ccc3ccccc3c1)[n+]2[O-]` [Compound 6d, 2-Naphthyl-1H-benzimidazol-4,7-dione N-oxide], for which, in data set [1], the “Differential cytotoxicity O/H (hypoxic/aerobic cytotoxicity coefficient)” value stood at 2.62. The concentration for half-maximal inhibition (IC50) in data set [1] (setting [5]) came to 96.8 ± 1.9 µM.
With “2-(4-Chlorophenyl)-1H-benzimidazol-4,7-dione N-oxide [Compound 6a]”, the “Differential cytotoxicity O/H (hypoxic/aerobic cytotoxicity coefficient)” value in data set [4] is recorded as 3.28. In addition, the “inhibition of the cell growth / decrease of cell viability compared to control cells” value in data set [1] (normoxia) is 20%. The results for the concentration for half-maximal inhibition (IC50) in data set [1] (setting [5]) and in data set [1] (setting [8]) were 35 ± 1.6 µM and 116 ± 1.9 µM, respectively.
For `O=C1C=CC(=O)c2c1[nH]c(-c1ccc3c(c1)OCO3)[n+]2[O-]` [Compound 6c, 2-Benzo[1,3]dioxol-1H-benzimidazol-4,7-dione N-oxide], the values for the half-maximal inhibitory concentration (IC50) in data set [1] (setting [6]) and in data set [1] (setting [7]) were 79.5 ± 1.9 µM and 44 ± 2.5 µM, respectively. Further, the “Differential cytotoxicity O/H (hypoxic/aerobic cytotoxicity coefficient)” value in data set [1] stood at 1.80.
For `Nc1n[n+]([O-])c2ccccc2[n+]1[O-]` [Tirapazamine, reference compound], the concentration for half-maximal inhibition (IC50) in data set [1] (setting [6]) came out at 166 µM; in data set [1] (setting [7]), 30 ± 1.5 µM; in data set [1] (setting [8]) it was 166.2 ± 1.6 µM.
Take `O=C1C=CC(=O)c2c1[nH]c(-c1ccccc1[N+](=O)[O-])[n+]2[O-]` [Compound 6b, 2-(2-Nitrophenyl)-1H-benzimidazol-4,7-dione N-oxide]: the “degradation rate constant k” value in data set [2] (MeOH) was found to be 0.0002 h⁻¹; in data set [3] (0.2% DMSO), 0.00009 h⁻¹; in data set [3] (0.9% NaCl), 0.0004 h⁻¹; in data set [3] (H2O) it was 0.0004 h⁻¹. For the same molecule, the half-life at 0.1 mg/mL in data set [2] (MeOH) was 161 h; in data set [3] (0.2% DMSO), 413 h; in data set [3] (0.9% NaCl), 142 h; in data set [3] (water, H2O) it was 146 h. In addition, in data set [1] (setting [7]), the half-inhibitory concentration (IC50) came to 116 ± 0.8 µM. For the same molecule, in data set [1], the “Differential cytotoxicity O/H (hypoxic/aerobic cytotoxicity coefficient)” value was determined as 4.31.
Turning to `O=C1C=CC(=O)c2[nH]c(-c3ccc4c(c3)OCO4)nc21` [Compound 5c, 2-Benzo[1,3]dioxol-1H-benzimidazol-4,7-dione], the values for the IC50 in data set [1] (setting [6]) and in data set [1] (setting [7]) were 80.9 ± 1.9 µM and 51.2 ± 1.5 µM, respectively. In addition, the “Differential cytotoxicity O/H (hypoxic/aerobic cytotoxicity coefficient)” value in data set [1] is listed as 1.58.
Take `O=C1C=CC(=O)c2[nH]c(-c3ccc(Cl)cc3)nc21` [Compound 5a, 2-(4-Chlorophenyl)-1H-benzimidazol-4,7-dione]: the IC50 in data set [1] (setting [6]) was determined as 30.2 ± 1.2 µM; in data set [1] (setting [7]) it was 36.1 ± 1.2 µM. Besides, in data set [1] (normoxia), the “inhibition of the cell growth / decrease of cell viability compared to control cells” value is recorded as “approximately 33%”. Moreover, the “Differential cytotoxicity O/H (hypoxic/aerobic cytotoxicity coefficient)” value in data set [1] stood at 0.83.
